In patent US11591476B2, “In-vivo probe for real time longitudinal monitoring of inducible nitric-oxide synthase in living cells and animals” (priority 2016, dated 2023):

Test: Fluorescence excitation and emission maxima of the probes
Assay type: physicochemical
Text: The probe of the present disclosure can selectively bind iNOS enzyme and produce a perceptible change in fluorescence upon binding.

emission wavelength: 630 nm
maximum excitation wavelength: 610 nm
SMILES: CN1c2cc3c(cc2C(CS(=O)(=O)[O-])=CC1(C)C)C(c1c(Cl)c(SCC(=O)NCCCCCC(=O)N2CCN(c4ccnc(-n5ccnc5)n4)C(CC(=O)NCc4ccc5c(c4)OCO5)C2)c(Cl)c(Cl)c1C(=O)O)=c1cc2c(cc1O3)=[N+](C)C(C)(C)C=C2CS(=O)(=O)O (centres unmarked) [PIA-610, Pyrimidine Imidazole Alexa-Fluor-610]
